Experimental findings from patent publication US20210115104A1, “AMYLIN ANALOGUES” (Zealand Pharma A/S, priority 2015, published 2021) are described below.

In data set [1] the target is T1, human calcitonin receptor (hCTR2) (Homo sapiens, UniProt P30988).
T1 construct: expressed in transfected cells
T1 sequence (P30988 25-474): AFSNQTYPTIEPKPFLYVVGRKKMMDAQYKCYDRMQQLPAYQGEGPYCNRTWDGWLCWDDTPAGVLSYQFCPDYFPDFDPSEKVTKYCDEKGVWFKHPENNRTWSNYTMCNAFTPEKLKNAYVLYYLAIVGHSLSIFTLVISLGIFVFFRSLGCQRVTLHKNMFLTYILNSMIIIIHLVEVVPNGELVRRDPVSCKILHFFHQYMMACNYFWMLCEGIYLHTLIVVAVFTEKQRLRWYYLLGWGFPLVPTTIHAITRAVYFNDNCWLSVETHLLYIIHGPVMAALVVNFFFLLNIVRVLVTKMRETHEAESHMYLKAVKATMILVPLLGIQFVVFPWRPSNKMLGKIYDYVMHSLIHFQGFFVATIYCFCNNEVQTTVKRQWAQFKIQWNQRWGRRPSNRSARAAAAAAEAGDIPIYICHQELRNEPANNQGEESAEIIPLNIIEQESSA
Nature of the data set: hCTR2 cAMP assay (AlphaScreen) in COS7 cells. It counts as cell-based. To be noted: cAMP induction, COS7 cells expressing hCTR2; Table 1; read-out: hCTR2 EC50. In short, it runs like this:
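cAMP induction, read by AlphaScreen after lysis, gives EC50 values via 4PL curve fitting. Peptides were applied at rising concentrations for 15 min at 37 °C, with IBMX and 0.1% casein in HEPES-buffered Tyrode pH 7.4, to COS7 cells (no endogenous RAMPs) stably expressing human CTR2.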
(Changes in cAMP serve as a functional read-out for many G protein-coupled receptors.)

Data set [2] deals with T2, human amylin receptor 3 (hAMYR3), hCTR2 co-expressed with hRAMP3 (Homo sapiens, UniProt O60896+P30988).
T2 construct: expressed in transfected cells
T2 sequence (P30988 25-474): T1 sequence (P30988 25-474)
T2 sequence (O60896 24-148 partner): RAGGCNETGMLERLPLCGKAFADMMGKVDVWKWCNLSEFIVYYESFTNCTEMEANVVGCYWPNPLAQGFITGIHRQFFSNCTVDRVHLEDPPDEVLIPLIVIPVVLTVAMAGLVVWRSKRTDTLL
Nature of the data set: hAMYR3 cAMP assay (AlphaScreen) in COS7 cells. It counts as cell-based. To be noted: cAMP induction, COS7 cells expressing hAMYR3; Table 1; read-out: hAMYR3 EC50. In short, it runs like this:
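EC50 values derive from 4PL curve fits of cAMP (AlphaScreen) in lysates of RAMP-naive COS7 cells stably carrying hCTR2 plus hRAMP3. Peptide dilution series were applied for 15 min at 37 °C in pH 7.4 Tyrode buffer containing 100 µM IBMX and 0.1% casein.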

Data set [3] can be described thus: Assessment of chemical stability (RP-HPLC normalized purity). Particulars: 7 days, 40° C., Table 1. Format: physicochemical. In short, it runs like this:
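Purity after 7 days at 40° C is expressed relative to T=0 (set to 100) for each pH. Samples at 0.2 mg/ml, pH 4, 6, 7.5 or 9, analyzed by RP-HPLC with UV 220 nm on C8 (ammonium formate) or C18 (TFA) gradients.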

*1 amine or outer side, *2 acyl side, *3 side chain or, on linkers, in order; H or OH if unused. Where a SMILES comes first, the peptide text is derived from it. Bridges are numbered along the chain shown (N, C = ends). [ ]: non-standard residue; d: D form. The star is where a group is joined. C20 diacid = O=C(O)CCCCCCCCCCCCCCCCCCC(=O)*; γGlu = O=C(O)[C@H](CCC(=O)[*:2])N[*:1]; Hyp = O=C(O)[C@@H]1C[C@@H](O)CN1; NMeI = CC[C@H](C)[C@H](NC)C(=O)O; Aad = N[C@@H](CCCC(=O)O)C(=O)O; Sar = CNCC(=O)O

As usually defined, the EC50 is the concentration at which the effect is half-maximal. Regarding `CC[C@H](C)[C@@H](C(=O)N[C@@H](CC(C)C)C(=O)N[C@@H](CO)C(=O)N[C@@H](CO)C(=O)N[C@H](C(=O)N[C@@H](CCC(=O)O)C(=O)N[C@H](C(=O)NCC(=O)N[C@@H](CO)C(=O)N[C@@H](CO)C(=O)N[C@H](C(=O)N1C[C@H](O)C[C@H]1C(N)=O)[C@@H](C)O)C(C)C)[C@@H](C)O)N(C)C(=O)[C@H](C)NC(=O)CN(C)C(=O)[C@H](Cc1ccccc1)NC(=O)[C@H](CO)NC(=O)[C@H](CO)NC(=O)[C@H](CCCNC(=N)N)NC(=O)[C@H](CC(N)=O)NC(=O)[C@H](CC(C)C)NC(=O)[C@H](Cc1ccccc1)NC(=O)[C@H](Cc1c[nH]cn1)NC(=O)[C@H](C)NC(=O)[C@H](CC(C)C)NC(=O)[C@H](CCCNC(=N)N)NC(=O)[C@H](CCC(=O)O)NC(=O)[C@@H](NC(=O)[C@H](C)NC(=O)[C@@H]1CSSC[C@H](NC(=O)[C@H](CCCNC(=N)N)NC(=O)CC[C@H](NC(=O)CCCCCCCCCCCCCCCCCCC(=O)O)C(=O)O)C(=O)NCC(=O)N[C@@H]([C@@H](C)O)C(=O)N[C@@H](C)C(=O)N[C@@H]([C@@H](C)O)C(=O)N1)[C@@H](C)O` [Compound 29, [19CD]-isoGlu-R-C( )-GTAT-C( )-ATERLAHFLNRSSF-Gly(Me)-A-Ile(Me)-LSSTEVGSST-Hyp-NH2] ({C20 diacid-γGlu}-RCGTATCATERLAHFLNRSSF[Sar]A[NMeI]LSSTEVGSST[Hyp]-NH2; disulfide 2-7), the EC50 in data set [1] turned out to be 0.09 nM; in data set [2] it was 0.12 nM. Besides, the “Normalized purity after 7 days, 40° C., pH 4” value in data set [3] (pH 4, 0.2 mg/ml) is “A (A = >90%)”. Moreover, in data set [3] (pH 7.5, 0.2 mg/ml), the “Normalized purity after 7 days, 40° C., pH 7.5” value is “B (B = 70-90%)”. The “Normalized purity after 7 days, 40° C., pH 9” value in data set [3] (pH 9, 0.2 mg/ml) is “B (B = 70-90%)”.

As for `CC[C@H](C)[C@@H](C(=O)N[C@@H](CC(C)C)C(=O)N[C@@H](CO)C(=O)N[C@@H](CO)C(=O)N[C@H](C(=O)N[C@@H](CCC(=O)O)C(=O)N[C@H](C(=O)NCC(=O)N[C@@H](CO)C(=O)N[C@H](C(=O)N[C@H](C(=O)N1CCC[C@H]1C(N)=O)[C@@H](C)O)[C@@H](C)O)C(C)C)[C@@H](C)O)N(C)C(=O)[C@H](C)NC(=O)CN(C)C(=O)[C@H](Cc1ccccc1)NC(=O)[C@H](CO)NC(=O)[C@H](CO)NC(=O)[C@H](CCCNC(=N)N)NC(=O)[C@H](CCC(N)=O)NC(=O)[C@H](CC(C)C)NC(=O)[C@H](Cc1ccccc1)NC(=O)[C@H](CC(=O)O)NC(=O)[C@H](C)NC(=O)[C@H](CC(C)C)NC(=O)[C@H](CCCNC(=N)N)NC(=O)[C@H](CCC(N)=O)NC(=O)[C@@H](NC(=O)[C@H](C)NC(=O)[C@@H]1CSSC[C@H](NC(=O)[C@H](CCCNC(=N)N)NC(=O)CC[C@H](NC(=O)CCCCCCCCCCCCCCCCCCC(=O)O)C(=O)O)C(=O)N[C@@H](CC(N)=O)C(=O)N[C@@H]([C@@H](C)O)C(=O)N[C@@H](C)C(=O)N[C@@H]([C@@H](C)O)C(=O)N1)[C@@H](C)O` [Compound 82, [19CD]-isoGlu-R-C( )-NTAT-C( )-ATQRLADFLQRSSF-Gly(Me)-A-Ile(Me)-LSSTEVGSTTP-NH2] ({C20 diacid-γGlu}-RCNTATCATQRLADFLQRSSF[Sar]A[NMeI]LSSTEVGSTTP-NH2; disulfide 2-7), the results for the EC50 in data set [1] and in data set [2] were 0.21 nM and 0.53 nM, respectively.

Take `CC[C@H](C)[C@@H](C(=O)N[C@@H](CC(C)C)C(=O)N[C@@H](CO)C(=O)N[C@@H](CO)C(=O)N[C@H](C(=O)N[C@@H](CCC(=O)O)C(=O)N[C@H](C(=O)NCC(=O)N[C@@H](CO)C(=O)N[C@H](C(=O)N[C@H](C(=O)N1C[C@H](O)C[C@H]1C(N)=O)[C@@H](C)O)[C@@H](C)O)C(C)C)[C@@H](C)O)N(C)C(=O)[C@H](C)NC(=O)CN(C)C(=O)[C@H](Cc1ccccc1)NC(=O)[C@H](CO)NC(=O)[C@H](CO)NC(=O)[C@H](CCCNC(=N)N)NC(=O)[C@H](CCC(N)=O)NC(=O)[C@H](CC(C)C)NC(=O)[C@H](Cc1ccccc1)NC(=O)[C@H](CC(=O)O)NC(=O)[C@H](C)NC(=O)[C@H](CC(C)C)NC(=O)[C@H](CCCNC(=N)N)NC(=O)[C@H](CCC(N)=O)NC(=O)[C@@H](NC(=O)[C@H](C)NC(=O)[C@@H]1CSSC[C@H](NC(=O)[C@H](CCCNC(=N)N)NC(=O)CC[C@H](NC(=O)CCCCCCCCCCCCCCCCCCC(=O)O)C(=O)O)C(=O)N[C@@H](CC(N)=O)C(=O)N[C@@H]([C@@H](C)O)C(=O)N[C@@H](C)C(=O)N[C@@H]([C@@H](C)O)C(=O)N1)[C@@H](C)O` [Compound 83, [19CD]-isoGlu-R-C( )-NTAT-C( )-ATQRLADFLQRSSF-Gly(Me)-A-Ile(Me)-LSSTEVGSTT-Hyp-NH2] ({C20 diacid-γGlu}-RCNTATCATQRLADFLQRSSF[Sar]A[NMeI]LSSTEVGSTT[Hyp]-NH2; disulfide 2-7): the concentration for a half-maximal effect (EC50) in data set [1] is 0.13 nM; in data set [2], 0.32 nM.

As to `CC[C@H](C)[C@@H](C(=O)N[C@@H](CC(C)C)C(=O)N[C@@H](CO)C(=O)N[C@@H](CO)C(=O)N[C@H](C(=O)N[C@@H](CCC(=O)O)C(=O)N[C@H](C(=O)NCC(=O)N[C@@H](CO)C(=O)N[C@@H](CO)C(=O)N[C@H](C(=O)N1CCC[C@H]1C(N)=O)[C@@H](C)O)C(C)C)[C@@H](C)O)N(C)C(=O)[C@H](C)NC(=O)CN(C)C(=O)[C@H](Cc1ccccc1)NC(=O)[C@H](CO)NC(=O)[C@H](CO)NC(=O)[C@H](CCCNC(=N)N)NC(=O)[C@H](CCC(N)=O)NC(=O)[C@H](CC(C)C)NC(=O)[C@H](Cc1ccccc1)NC(=O)[C@H](Cc1c[nH]cn1)NC(=O)[C@H](C)NC(=O)[C@H](CC(C)C)NC(=O)[C@H](CCCNC(=N)N)NC(=O)[C@H](CCC(N)=O)NC(=O)[C@@H](NC(=O)[C@H](C)NC(=O)[C@@H]1CSSC[C@H](NC(=O)[C@H](CCCNC(=N)N)NC(=O)CC[C@H](NC(=O)CCCCCCCCCCCCCCCCCCC(=O)O)C(=O)O)C(=O)N[C@@H](CC(N)=O)C(=O)N[C@@H]([C@@H](C)O)C(=O)N[C@@H](C)C(=O)N[C@@H]([C@@H](C)O)C(=O)N1)[C@@H](C)O` [Compound 85, [19CD]-isoGlu-R-C( )-NTAT-C( )-ATQRLAHFLQRSSF-Gly(Me)-A-Ile(Me)-LSSTEVGSSTP-NH2] ({C20 diacid-γGlu}-RCNTATCATQRLAHFLQRSSF[Sar]A[NMeI]LSSTEVGSSTP-NH2; disulfide 2-7), the concentration giving a half-maximal response (EC50) was determined as 0.1 nM in data set [1] and 0.14 nM in data set [2].

On to `CC[C@H](C)[C@@H](C(=O)N[C@@H](CC(C)C)C(=O)N[C@@H](CO)C(=O)N[C@@H](CO)C(=O)N[C@H](C(=O)N[C@@H](CCC(=O)O)C(=O)N[C@H](C(=O)NCC(=O)N[C@@H](CO)C(=O)N[C@@H](CO)C(=O)N[C@H](C(=O)N1C[C@H](O)C[C@H]1C(N)=O)[C@@H](C)O)C(C)C)[C@@H](C)O)N(C)C(=O)[C@H](C)NC(=O)CN(C)C(=O)[C@H](Cc1ccccc1)NC(=O)[C@H](CO)NC(=O)[C@H](CO)NC(=O)[C@H](CCCNC(=N)N)NC(=O)[C@H](CCC(N)=O)NC(=O)[C@H](CC(C)C)NC(=O)[C@H](Cc1ccccc1)NC(=O)[C@H](CCCC(=O)O)NC(=O)[C@H](C)NC(=O)[C@H](CC(C)C)NC(=O)[C@H](CCCNC(=N)N)NC(=O)[C@H](CCC(N)=O)NC(=O)[C@@H](NC(=O)[C@H](C)NC(=O)[C@@H]1CSSC[C@H](NC(=O)[C@H](CCCNC(=N)N)NC(=O)CC[C@H](NC(=O)CCCCCCCCCCCCCCCCCCC(=O)O)C(=O)O)C(=O)N[C@@H](CC(N)=O)C(=O)N[C@@H]([C@@H](C)O)C(=O)N[C@@H](C)C(=O)N[C@@H]([C@@H](C)O)C(=O)N1)[C@@H](C)O` [Compound 87, [19CD]-isoGlu-R-C( )-NTAT-C( )-ATQRLA-Aad-FLQRSSF-Gly(Me)-A-Ile(Me)-LSSTEVGSST-Hyp-NH2] ({C20 diacid-γGlu}-RCNTATCATQRLA[Aad]FLQRSSF[Sar]A[NMeI]LSSTEVGSST[Hyp]-NH2; disulfide 2-7), for which the EC50 was 0.2 nM in data set [1] and 0.13 nM in data set [2].
